Data set [1] has as its system Hepatitis C virus. Nature of the data set: Inhibition of HCV1b NS5B delta21 polymerase assessed as incorporation of nucleotides into sshRNA template using [33P]-CTP after 15 mins by scintillation counting. The settings on record: 0.25 h. More on the design: species or system Hepatitis C virus subtype 1b.
The subject of data set [2] is Hepatitis C virus. Nature of the data set: Antiviral activity against HCV1b infected in human Huh-7 cells after 3 days by renilla luciferase activity based replicon assay. The class given is functional, organism-based, Hepacivirus hominis. The settings on record: genotype 1b, Huh-7, 72 h. Background: In antiviral work, replicon cells carry a viral genome segment that copies itself.

In data set [3] the test system is Hepatitis C virus. Nature of the data set: Antiviral activity against HCV1a infected in human Huh-7 cells after 3 days by renilla luciferase activity based replicon assay. The settings on record: subtype 1a, Huh-7, 72 h. The class given is functional, organism-based, Hepacivirus hominis.
Data set [4] in a line: Cytotoxicity against human HuH7 cells after 3 days by measuring conversion of nonfluorescent calcein-AM into fluorescent calcein. The class given is cell-based, Huh-7.
Data set [5] is described as follows: Lipophilicity, log D of the compound. The class given is physicochemical. The settings on record: octanol/water.
The nature of data set [6]: Selectivity index, ratio of CC50 for human HuH7 cells to EC50 for HCV1b infected in human Huh-7 cells.
Data set [7] concerns Hepatitis C virus. Nature of the data set: Binding affinity to HCV1b C-terminally truncated NS5B Cdelta21 RNA dependent RNA polymerase expressed in Escherichia coli by surface plasmon resonance assay. Also noted: species or system Hepatitis C virus subtype 1b. A general note: SPR reads the build-up and loss of mass on a sensor chip optically.

On to `CC(C)N(c1cc(C#CC(C)(C)C)sc1C(=O)O)C(=O)[C@H]1CC[C@H](C)CC1`, for which, in the data set on Hepatitis C virus [1], the IC50 – broadly, the concentration needed to halve the response being measured – is 86 nM. Moreover, the EC50 (in general, the concentration needed to bring the measured effect to its halfway point) with Hepatitis C virus [2] was 26 nM; in the data set on Hepatitis C virus [3], 90 nM. Moreover, in data set [4], the CC50 (in general, the concentration giving 50% cytotoxicity) at 72 h was more than 44 µM. Besides, the logD (commonly the decadic logarithm of the distribution of all forms, ionised or not, between an organic phase and buffer at a given pH) in data set [5] came to 2.
For `CN(C)N(c1cc(C#CC(C)(C)C)sc1C(=O)O)C(=O)[C@H]1CC[C@H](C)CC1`, the IC50 with Hepatitis C virus [1] was 88 nM. The concentration for a half-maximal effect (EC50) stood at 89 nM in the data set on Hepatitis C virus [2] and 478 nM with Hepatitis C virus [3]. For the same molecule, the CC50 at 72 h in data set [4] is more than 44 µM. For the same molecule, in data set [6], the “Ratio CC50/EC50” value is more than 400. In addition, in data set [5], the logD worked out at 2.1.
With `CN(CCO)N(c1cc(C#CC(C)(C)C)sc1C(=O)O)C(=O)[C@H]1CC[C@H](C)CC1`, the Kd (as a rule, the free concentration of one partner at which half of the binding sites on the other are occupied at equilibrium, for simple one-to-one binding) in the data set on Hepatitis C virus [7] was 10 nM. Besides, in the data set with Hepatitis C virus [1], the concentration for half-maximal inhibition (IC50) came out at 52 nM. In addition, it took 32 nM to reach a half-maximal effect with Hepatitis C virus [2] (EC50). Further, the 50% cytotoxic concentration (CC50) at 72 h in data set [4] was more than 44 µM.
In the data set with Hepatitis C virus [7], `CN([C@H]1CC[C@H](O)CC1)N(c1cc(C#CC(C)(C)C)sc1C(=O)O)C(=O)[C@H]1CC[C@H](C)CC1` yielded a Kd of 8 nM. The IC50 in the data set on Hepatitis C virus [1] was 307 nM. The EC50 in the data set with Hepatitis C virus [2] is 34 nM. The CC50 at 72 h in data set [4] was more than 44 µM.
On the same counts, the results for `CN(CC1CCOCC1)N(c1cc(C#CC(C)(C)C)sc1C(=O)O)C(=O)[C@H]1CC[C@H](C)CC1` are 10 nM, 509 nM, 47 nM and more than 44 µM.
Take `CN(C1CCNCC1)N(c1cc(C#CC(C)(C)C)sc1C(=O)O)C(=O)[C@H]1CC[C@H](C)CC1`: the Kd with Hepatitis C virus [7] amounted to 4 nM. For the same molecule, the half-inhibitory concentration (IC50) with Hepatitis C virus [1] was found to be 138 nM. This molecule also registered a 50% effective concentration (EC50) with Hepatitis C virus [2] of 60 nM. The 50% cytotoxic concentration (CC50) at 72 h in data set [4] was more than 44 µM.
Turning to `CN1CCC(N(C)N(c2cc(C#CC(C)(C)C)sc2C(=O)O)C(=O)[C@H]2CC[C@H](C)CC2)CC1`, the dissociation constant Kd in the data set with Hepatitis C virus [7] was determined as 4 nM. Also, in the data set with Hepatitis C virus [1], the IC50 was found to be 63 nM. Also, the EC50 with Hepatitis C virus [2] turned out to be 7 nM; with Hepatitis C virus [3] it was 25 nM. In data set [4], the CC50 at 72 h is more than 44 µM.
As for `CN(c1ccncc1)N(c1cc(C#CC(C)(C)C)sc1C(=O)O)C(=O)[C@H]1CC[C@H](C)CC1`, the affinity in the data set with Hepatitis C virus [7], expressed as Kd, was 30 nM. The IC50 in the data set on Hepatitis C virus [1] was determined as 346 nM. The molecule further showed an EC50 in the data set with Hepatitis C virus [2] of 3900 nM. Further, the cytotoxic concentration (CC50) at 72 h in data set [4] is 36 µM.

(Values after ChEMBL document CHEMBL2040772, “Tri-substituted acylhydrazines as tertiary amide bioisosteres: HCV NS5B polymerase inhibitors” (Bioorg Med Chem Lett, 2012).)
